From patent US11427556B2, “Urea derivatives as inhibitors of ASK1” (Hepagene Therapeutics (HK) Limited, priority 2017, dated 2022)
Read-outs that look alike come from different tables or passages of the source.

Target: T1, Recombinant human ASK1 kinase (Homo sapiens, UniProt Q99683)
T1 construct: purchased Invitrogen Inc
T1 sequence (Q99683 1-1374): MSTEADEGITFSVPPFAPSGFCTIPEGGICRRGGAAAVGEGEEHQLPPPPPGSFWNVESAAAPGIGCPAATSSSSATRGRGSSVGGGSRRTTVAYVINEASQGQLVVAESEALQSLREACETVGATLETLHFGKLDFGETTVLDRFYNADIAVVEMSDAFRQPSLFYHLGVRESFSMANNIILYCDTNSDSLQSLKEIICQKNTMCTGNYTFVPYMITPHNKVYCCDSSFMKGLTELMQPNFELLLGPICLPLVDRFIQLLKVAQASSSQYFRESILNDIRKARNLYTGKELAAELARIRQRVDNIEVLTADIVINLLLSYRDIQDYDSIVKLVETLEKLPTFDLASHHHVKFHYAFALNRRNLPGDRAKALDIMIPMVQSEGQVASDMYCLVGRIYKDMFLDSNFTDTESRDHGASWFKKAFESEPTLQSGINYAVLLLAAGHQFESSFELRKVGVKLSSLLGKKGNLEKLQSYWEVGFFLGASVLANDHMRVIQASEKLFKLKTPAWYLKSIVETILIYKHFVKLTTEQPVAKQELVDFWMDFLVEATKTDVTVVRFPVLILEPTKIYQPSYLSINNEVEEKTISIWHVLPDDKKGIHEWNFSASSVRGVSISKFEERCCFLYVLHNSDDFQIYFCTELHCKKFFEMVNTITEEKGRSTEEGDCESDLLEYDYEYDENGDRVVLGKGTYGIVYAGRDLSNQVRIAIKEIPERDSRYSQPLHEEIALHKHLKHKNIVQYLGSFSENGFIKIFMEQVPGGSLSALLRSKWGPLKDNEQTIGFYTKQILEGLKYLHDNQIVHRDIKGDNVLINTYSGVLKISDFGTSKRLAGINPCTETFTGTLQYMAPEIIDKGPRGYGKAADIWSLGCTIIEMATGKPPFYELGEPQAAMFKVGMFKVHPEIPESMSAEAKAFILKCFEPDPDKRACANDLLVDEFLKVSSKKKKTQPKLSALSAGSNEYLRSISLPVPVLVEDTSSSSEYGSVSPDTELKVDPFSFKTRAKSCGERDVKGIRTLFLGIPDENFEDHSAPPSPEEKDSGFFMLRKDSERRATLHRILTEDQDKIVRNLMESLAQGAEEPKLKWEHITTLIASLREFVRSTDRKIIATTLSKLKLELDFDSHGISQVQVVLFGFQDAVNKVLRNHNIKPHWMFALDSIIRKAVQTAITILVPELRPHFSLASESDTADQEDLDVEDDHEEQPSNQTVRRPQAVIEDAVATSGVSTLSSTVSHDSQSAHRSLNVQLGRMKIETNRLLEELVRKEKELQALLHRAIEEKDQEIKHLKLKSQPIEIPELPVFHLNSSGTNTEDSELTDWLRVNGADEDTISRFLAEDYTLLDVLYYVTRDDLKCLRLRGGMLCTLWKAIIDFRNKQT
Test: ASK1 kinase HTRF assay (HTRF KinEASE-STK, phosphorylation of biotinylated peptide substrate)
Format: biochemical
Protocol: Reagents: Recombinant human ASK1 kinase was from Invitrogen Inc. HTRF KinEASETM-STK S3 kit was obtained from Cisbio (Bedford, Mass.). All other reagents were of the highest grade commercially available.
Assay: The assay measures the phosphorylation level of a biotinylatd peptide substrate by the ASK1 kinase using HTRF detection. ASK1 kinase assay is based on HTRF KinEASETM-STK manual from Cisbio. Test compound, 1 uM STK-substrate-biotin, 3 nM of ASK1 kinase are incubated with 1*Kinase buffer with 5 mM MgCl2 and 1 mM DTT.

[1] = 3 nM ASK1 kinase, 1 uM STK-substrate-biotin, HTRF detection, read-out: EC50

Row | SMILES | EC50 [1] [nM] | EC50 [nM]
1 | CC(C)n1cnnc1-c1cccc(NC(=O)Nc2cc3ccccc3cn2)n1 [Compound I-057] |  | < 50
2 | CC(=O)OC[C@@H](C)n1cnnc1-c1cccc(NC(=O)Nc2cc3ccccc3cn2)n1 [Compound I-061] | 50 to 500 | 
3 | CC(C)n1cnnc1-c1cccc(NC(=O)Nc2cc3cc(N4CCNCC4)ccc3cn2)n1 [Compound I-065] | 50 to 500 | 
4 | CC(C)n1cnnc1-c1cccc(NC(=O)Nc2nccc3ccccc23)n1 [Compound I-066] |  | < 50
5 | CC(C)n1cnnc1-c1cccc(NC(=O)Nc2ccc3ccccc3n2)n1 [Compound I-067] |  | < 50
6 | C[C@H](CO)n1cnnc1-c1cccc(NC(=O)Nc2ccc3ccccc3n2)n1 [Compound I-069] |  | < 50
7 | CC(C)n1cnnc1-c1cccc(NC(=O)Nc2cc(O)ccn2)n1 [Compound I-073] | 50 to 500 | 
8 | CC(C)n1cnnc1-c1cccc(NC(=O)Nc2ncccc2-c2ccccc2)n1 [Compound I-075] | 50 to 500 | 
9 | CC(C)n1cnnc1-c1cccc(NC(=O)Nc2ncccc2-c2ccncc2)n1 [Compound I-083] | 50 to 500 | 
10 | CC(C)n1cnnc1-c1cccc(NC(=O)Nc2ccc(N3CCNCC3)cn2)n1 [Compound I-097] | < 50 | 
11 | CC(C)N1CCN(c2ccnc(NC(=O)Nc3cccc(-c4nncn4C(C)C)n3)c2)CC1 [Compound I-098] | < 50 | 
12 | CCN1CCN(c2ccnc(NC(=O)Nc3cccc(-c4nncn4C(C)C)n3)c2)CC1 [Compound I-099] | < 50 | 
13 | CC(C)n1cnnc1-c1cccc(NC(=O)Nc2cc(N3CCN(C4CC4)CC3)ccn2)n1 [Compound I-100] | < 50 | 
14 | CC(C)n1cnnc1-c1cccc(NC(=O)Nc2cc(N3CCN(CCO)CC3)ccn2)n1 [Compound I-101] | < 50 | 
15 | CC(C)n1cnnc1-c1cccc(NC(=O)Nc2cc(N3CCN(S(C)(=O)=O)CC3)ccn2)n1 [Compound I-102] | < 50 | 
16 | C[C@H](CO)n1cnnc1-c1cccc(NC(=O)Nc2cc(N3CCN(S(C)(=O)=O)CC3)ccn2)n1 [Compound I-103] | < 50 | 
17 | CC(=O)N1CCN(c2ccnc(NC(=O)Nc3cccc(-c4nncn4C(C)C)n3)c2)CC1 [Compound I-104] | < 50 | 
18 | CC(C)n1cnnc1-c1cccc(NC(=O)Nc2cc(N3CCCCC3)ccn2)n1 [Compound I-105] | < 50 | 
19 | CC(C)n1cnnc1-c1cccc(NC(=O)Nc2cc(N3CCC(N4CCOCC4)CC3)ccn2)n1 [Compound I-106] | < 50 | 
20 | C[C@H](CO)n1cnnc1-c1cccc(NC(=O)Nc2cc(N3CCC(N4CCOCC4)CC3)ccn2)n1 [Compound I-107] | < 50 | 
21 | CC(C)n1cnnc1-c1cccc(NC(=O)Nc2cc(C(N)=O)ccn2)n1 [Compound I-108] | < 50 | 
22 | CC(C)n1cnnc1-c1cccc(NC(=O)Nc2cc(C(=O)N3CCCCC3)ccn2)n1 [Compound I-109] |  | < 50
23 | C[C@H](CO)n1cnnc1-c1cccc(NC(=O)Nc2cc(C(=O)N3CCCCC3)ccn2)n1 [Compound I-110] |  | < 50
24 | CC1(n2cnnc2-c2cccc(NC(=O)Nc3cc(C(=O)N4CCCCC4)ccn3)n2)CC1 [Compound I-115] | < 50 | 
25 | CC(C)n1cnnc1-c1cccc(NC(=O)Nc2cc(C(=O)N3CCC(C)(C)CC3)ccn2)n1 [Compound I-117] | < 50 | 
26 | CC(C)n1cnnc1-c1cccc(NC(=O)Nc2cc(C(=O)N3CCCC[C@@H]3C)ccn2)n1 [Compound I-118] | < 50 | 
27 | C[C@H](CO)n1cnnc1-c1cccc(NC(=O)Nc2cc(C(=O)N3CCCC[C@@H]3C)ccn2)n1 [Compound I-119] | < 50 | 
28 | CC(C)n1cnnc1-c1cccc(NC(=O)Nc2cc(C(=O)N3CCCC[C@H]3C)ccn2)n1 [Compound I-120] | < 50 | 
29 | C[C@@H]1CCCCN1C(=O)c1ccnc(NC(=O)Nc2cccc(-c3nncn3[C@H](C)CO)n2)c1 [Compound I-121] | < 50 | 
30 | C[C@H](CO)n1cnnc1-c1cccc(NC(=O)Nc2cc(C(=O)N3CCc4ccccc4C3)ccn2)n1 [Compound I-122] | < 50 | 

Second part, the compound after the results:

Row | EC50 [1] [nM] | EC50 [nM] | SMILES
31 | < 50 |  | Cc1cnc(NC(=O)Nc2cccc(-c3nncn3C(C)C)n2)cn1 [Compound I-056]
32 | < 50 |  | C[C@H](CO)n1cnnc1-c1cccc(NC(=O)Nc2cc3ccccc3cn2)n1 [Compound I-058]
33 | < 50 |  | C[C@@H](CO)n1cnnc1-c1cccc(NC(=O)Nc2cc3ccccc3cn2)n1 [Compound I-059]
34 | < 50 |  | CC(C)[C@H](N)C(=O)OC[C@@H](C)n1cnnc1-c1cccc(NC(=O)Nc2cc3ccccc3cn2)n1 [Compound I-062]
35 | < 50 |  | O=C(Nc1cccc(-c2nncn2C2CC2)n1)Nc1ccc2ccccc2n1 [Compound I-068]
36 | < 50 |  | CC(C)n1cnnc1-c1cccc(NC(=O)Nc2ncccc2OCc2ccccc2)n1 [Compound I-070]
37 | < 50 |  | CC(C)n1cnnc1-c1cccc(NC(=O)Nc2ccc(OCc3ccccc3)cn2)n1 [Compound I-071]
38 | < 50 |  | CC(C)n1cnnc1-c1cccc(NC(=O)Nc2ncccc2O)n1 [Compound I-072]
39 | < 50 |  | CC(C)n1cnnc1-c1cccc(NC(=O)Nc2ccc(O)cn2)n1 [Compound I-074]
40 | < 50 |  | CC(C)n1cnnc1-c1cccc(NC(=O)Nc2ccc(-c3ccccc3)cn2)n1 [Compound I-076]
41 | < 50 |  | CC(C)n1cnnc1-c1cccc(NC(=O)Nc2cc(-c3ccccc3)ccn2)n1 [Compound I-077]
42 | < 50 |  | C[C@H](CO)n1cnnc1-c1cccc(NC(=O)Nc2cc(-c3ccccc3)ccn2)n1 [Compound I-078]
43 | < 50 |  | C[C@@H](CO)n1cnnc1-c1cccc(NC(=O)Nc2cc(-c3ccccc3)ccn2)n1 [Compound I-079]
44 | < 50 |  | CC(C)n1cnnc1-c1cccc(NC(=O)Nc2cc(-c3ccc(C4CC4)cc3)ccn2)n1 [Compound I-080]
45 | < 50 |  | CC(C)n1cnnc1-c1cccc(NC(=O)Nc2cc(-c3ccc(C4CC4)nc3)ccn2)n1 [Compound I-081]
46 | < 50 |  | CC(C)n1cnnc1-c1cccc(NC(=O)Nc2ncccc2-c2cccnc2)n1 [Compound I-082]
47 | < 50 |  | CC(C)n1cnnc1-c1cccc(NC(=O)Nc2cc(-c3ccccn3)ccn2)n1 [Compound I-084]
48 | < 50 |  | C[C@H](CO)n1cnnc1-c1cccc(NC(=O)Nc2cc(-c3ccccn3)ccn2)n1 [Compound I-085]
49 | < 50 |  | CC(C)n1cnnc1-c1cccc(NC(=O)Nc2cc(-c3cccnc3)ccn2)n1 [Compound I-086]
50 | < 50 |  | CC(C)n1cnnc1-c1cccc(NC(=O)Nc2cc(-c3ccncc3)ccn2)n1 [Compound I-087]
51 | < 50 |  | CC(C)n1cnnc1-c1cccc(NC(=O)Nc2ccc(-c3ccccn3)cn2)n1 [Compound I-088]
52 | < 50 |  | CC(C)n1cnnc1-c1cccc(NC(=O)Nc2ccc(-c3cccnc3)cn2)n1 [Compound I-089]
53 | < 50 |  | CC(C)n1cnnc1-c1cccc(NC(=O)Nc2ccc(-c3ccncc3)cn2)n1 [Compound I-090]
54 | < 50 |  | CC(C)n1cnnc1-c1cccc(NC(=O)Nc2cc(C3CCOCC3)ccn2)n1 [Compound I-091]
55 | < 50 |  | C[C@H](CO)n1cnnc1-c1cccc(NC(=O)Nc2cc(C3CCOCC3)ccn2)n1 [Compound I-092]
56 | < 50 |  | CC(C)n1cnnc1-c1cccc(NC(=O)Nc2ccc(N3CCOCC3)cn2)n1 [Compound I-093]
57 | < 50 |  | CC(C)n1cnnc1-c1cccc(NC(=O)Nc2cc(N3CCOCC3)ccn2)n1 [Compound I-094]
58 | < 50 |  | CC(C)n1cnnc1-c1cccc(NC(=O)Nc2cc(N3CCNCC3)ccn2)n1 [Compound I-095, 1-(6-(4-Isopropyl-4H-1,2,4-triazol-3-yl)pyridin-2-yl)-3-(4-(piperazin-1-yl)pyridin-2-yl)urea]
59 | < 50 |  | C[C@H](CO)n1cnnc1-c1cccc(NC(=O)Nc2cc(N3CCNCC3)ccn2)n1 [Compound I-096]
